Source: patent US9708314B2, “Heterocyclic amide compound” (NISSAN CHEMICAL INDUSTRIES, LTD., priority 2013, dated 2017)

Experiments:
Type in all cases: in vivo
[1] = test system: Echinochloa oryzacola Vasing.; assay: Test Example 1: herbicidal activity, application before weed generation in submerged conditions; conditions: Application herbicide amount 320 g/ha; Seventeenth Table
Method in brief: (§1)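 Rating, on a six-step scale from almost no effect (0) to almost completely withered (5), was made three weeks after pre-emergence treatment. Treatment was surface application to flooded pots at g/ha rates, with plants kept at 25° C. to 30° C.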

Monochoria vaginalis = assay: as above; conditions: Application herbicide amount 320 g/ha; Seventeenth Table
Method in brief: as §1

Scirpus juncoides = assay: as above; conditions: Application herbicide amount 320 g/ha; Seventeenth Table
Method in brief: as §1

[2] = test system: Beta vulgaris ssp. vulgaris; assay: Test Example 4: effect on crop by application to foliage (diluvial soil, plastic box); conditions: application to foliage; for f: effect on crop, Beta vulgaris ssp. vulgaris: application herbicide amount 320 g/ha; for effect on crop, f (Beta vulgaris ssp. vulgaris): 320 g/ha
Method in brief: (§2)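 Emulsion-formulated compound, diluted to a predetermined g/ha dose, applied by small sprayer to leaves and stems of 14-day-old seedlings grown in sterilized diluvial soil. Effect rated on 0–5 herbicidal-ratio scale three weeks on.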

Brassica campestris L. = assay: as above; conditions: application to foliage; for g: effect on crop, Brassica campestris L.: application herbicide amount 320 g/ha; for effect on crop, g (Brassica campestris L.): 320 g/ha
Method in brief: as §2

Glycine max = assay: as above; conditions: application to foliage; for d: effect on crop, Glycine max: application herbicide amount 320 g/ha; for effect on crop, c (Glycine max): 320 g/ha
Method in brief: as §2

Triticum aestivum = assay: as above; conditions: application to foliage; for e: effect on crop, Triticum aestivum: application herbicide amount 320 g/ha; for effect on crop, e (Triticum aestivum): 320 g/ha
Method in brief: as §2

Zea mays = assay: as above; conditions: application to foliage, application herbicide amount 320 g/ha
Method in brief: as §2

[3] = test system: directly sowed Oryza sativa; assay: as above; conditions: application to foliage; for b: effect on crop, directly sowed Oryza sativa: application herbicide amount 320 g/ha; for effect on crop, d (directly sowed Oryza sativa): 320 g/ha
Method in brief: as §2

Row | SMILES | A: Echinochloa oryzicola Vasing. (herbicidal effect grade) [1] | C: Monochoria vaginalis (herbicidal effect grade) (Monochoria vaginalis) | B: Scirpus juncoides (herbicidal effect grade) (Scirpus juncoides) | f: effect on crop, Beta vulgaris ssp. vulgaris [2] | g: effect on crop, Brassica campestris L. (Brassica campestris L.) | d: effect on crop, Glycine max (Glycine max) | e: effect on crop, Triticum aestivum (Triticum aestivum) | c: effect on crop, Zea mays (Zea mays) | b: effect on crop, directly sowed Oryza sativa [3] | effect on crop, f (Beta vulgaris ssp. vulgaris) [2] | effect on crop, g (Brassica campestris L.) (Brassica campestris L.) | effect on crop, c (Glycine max) (Glycine max) | effect on crop, e (Triticum aestivum) (Triticum aestivum) | effect on crop, d (directly sowed Oryza sativa) [3]
1 | COc1ccc(N(C)c2nnc3c(C(=O)Nc4nnco4)ccc(C(F)(F)F)n23)cc1 [1-171] | 5 (Herbicidal ratio of 90% or more (almost completely withered)) | 4 (Herbicidal ratio of 70% or more and less than 90%) | 4 (Herbicidal ratio of 70% or more and less than 90%) | 5 (Herbicidal ratio of 90% or more (almost completely withered)) | 3 (Herbicidal ratio of 40% or more and less than 70%) | 3 (Herbicidal ratio of 40% or more and less than 70%) | 0 (Herbicidal ratio of 5% or less (almost no effect)) | 0 (Herbicidal ratio of 5% or less (almost no effect)) | 0 (Herbicidal ratio of 5% or less (almost no effect)) | – | – | – | – | –
2 | C=CCN(C)c1nnc2c(C(=O)Nc3nnco3)ccc(C(F)(F)F)n12 [1-172] | 5 (Herbicidal ratio of 90% or more (almost completely withered)) | 3 (Herbicidal ratio of 40% or more and less than 70%) | 4 (Herbicidal ratio of 70% or more and less than 90%) | 5 (Herbicidal ratio of 90% or more (almost completely withered)) | 4 (Herbicidal ratio of 70% or more and less than 90%) | 4 (Herbicidal ratio of 70% or more and less than 90%) | 1 (Herbicidal ratio of 5% or more and less than 20%) | 0 (Herbicidal ratio of 5% or less (almost no effect)) | 3 (Herbicidal ratio of 40% or more and less than 70%) | – | – | – | – | –
3 | Cn1nnnc1NC(=O)c1ccc(C(F)(F)F)n2cnnc12 [2-001] | 2 (Herbicidal ratio of 20% or more and less than 40%) | 4 (Herbicidal ratio of 70% or more and less than 90%) | 3 (Herbicidal ratio of 40% or more and less than 70%) | 5 (Herbicidal ratio of 90% or more (almost completely withered)) | 4 (Herbicidal ratio of 70% or more and less than 90%) | 2 (Herbicidal ratio of 20% or more and less than 40%) | 0 (Herbicidal ratio of 5% or less (almost no effect)) | 0 (Herbicidal ratio of 5% or less (almost no effect)) | 0 (Herbicidal ratio of 5% or less (almost no effect)) | – | – | – | – | –
4 | Cc1nnc2c(C(=O)Nc3nnnn3C)ccc(C(F)(F)F)n12 [2-002] | 2 (Herbicidal ratio of 20% or more and less than 40%) | 3 (Herbicidal ratio of 40% or more and less than 70%) | 3 (Herbicidal ratio of 40% or more and less than 70%) | 5 (Herbicidal ratio of 90% or more (almost completely withered)) | 4 (Herbicidal ratio of 70% or more and less than 90%) | 3 (Herbicidal ratio of 40% or more and less than 70%) | 1 (Herbicidal ratio of 5% or more and less than 20%) | 0 (Herbicidal ratio of 5% or less (almost no effect)) | 2 (Herbicidal ratio of 20% or more and less than 40%) | – | – | – | – | –
5 | CC(C)c1nnc2c(C(=O)Nc3nnnn3C)ccc(C(F)(F)F)n12 [2-003] | 5 (Herbicidal ratio of 90% or more (almost completely withered)) | 5 (Herbicidal ratio of 90% or more (almost completely withered)) | 5 (Herbicidal ratio of 90% or more (almost completely withered)) | 5 (Herbicidal ratio of 90% or more (almost completely withered)) | 5 (Herbicidal ratio of 90% or more (almost completely withered)) | 4 (Herbicidal ratio of 70% or more and less than 90%) | 3 (Herbicidal ratio of 40% or more and less than 70%) | 1 (Herbicidal ratio of 5% or more and less than 20%) | 4 (Herbicidal ratio of 70% or more and less than 90%) | – | – | – | – | –
6 | CN(c1nnc2c(C(=O)Nc3nnnn3C)ccc(C(F)(F)F)n12)C1CCCCC1 [2-083] | 5 (Herbicidal ratio of 90% or more (almost completely withered)) | 4 (Herbicidal ratio of 70% or more and less than 90%) | 5 (Herbicidal ratio of 90% or more (almost completely withered)) | – | – | – | – | – | – | 5 (Herbicidal ratio of 90% or more (almost completely withered)) | 1 (Herbicidal ratio of 5% or more and less than 20%) | 0 (Herbicidal ratio of 5% or less (almost no effect)) | 0 (Herbicidal ratio of 5% or less (almost no effect)) | 4 (Herbicidal ratio of 70% or more and less than 90%)
7 | Cn1nnnc1NC(=O)c1ccc(C(F)(F)F)n2c(SCC3CC3)nnc12 [2-084] | 5 (Herbicidal ratio of 90% or more (almost completely withered)) | 4 (Herbicidal ratio of 70% or more and less than 90%) | 5 (Herbicidal ratio of 90% or more (almost completely withered)) | – | – | – | – | – | – | 5 (Herbicidal ratio of 90% or more (almost completely withered)) | 3 (Herbicidal ratio of 40% or more and less than 70%) | 1 (Herbicidal ratio of 5% or more and less than 20%) | 3 (Herbicidal ratio of 40% or more and less than 70%) | 3 (Herbicidal ratio of 40% or more and less than 70%)
8 | Cn1nnnc1NC(=O)c1ccc(C(F)(F)F)n2c(SCC3CCCO3)nnc12 (stereo not drawn) [2-085] | 5 (Herbicidal ratio of 90% or more (almost completely withered)) | 4 (Herbicidal ratio of 70% or more and less than 90%) | 5 (Herbicidal ratio of 90% or more (almost completely withered)) | – | – | – | – | – | – | 5 (Herbicidal ratio of 90% or more (almost completely withered)) | 4 (Herbicidal ratio of 70% or more and less than 90%) | 2 (Herbicidal ratio of 20% or more and less than 40%) | 3 (Herbicidal ratio of 40% or more and less than 70%) | 5 (Herbicidal ratio of 90% or more (almost completely withered))
9 | Cn1nnnc1NC(=O)c1ccc(C(F)(F)F)n2c(SCC#N)nnc12 [2-086] | 3 (Herbicidal ratio of 40% or more and less than 70%) | 3 (Herbicidal ratio of 40% or more and less than 70%) | 2 (Herbicidal ratio of 20% or more and less than 40%) | – | – | – | – | – | – | 5 (Herbicidal ratio of 90% or more (almost completely withered)) | 3 (Herbicidal ratio of 40% or more and less than 70%) | 0 (Herbicidal ratio of 5% or less (almost no effect)) | 2 (Herbicidal ratio of 20% or more and less than 40%) | 4 (Herbicidal ratio of 70% or more and less than 90%)
10 | Cn1nnnc1NC(=O)c1ccc(C(F)(F)F)n2c(SCC(F)(F)F)nnc12 [2-087] | 5 (Herbicidal ratio of 90% or more (almost completely withered)) | 4 (Herbicidal ratio of 70% or more and less than 90%) | 5 (Herbicidal ratio of 90% or more (almost completely withered)) | – | – | – | – | – | – | 5 (Herbicidal ratio of 90% or more (almost completely withered)) | 3 (Herbicidal ratio of 40% or more and less than 70%) | 0 (Herbicidal ratio of 5% or less (almost no effect)) | 2 (Herbicidal ratio of 20% or more and less than 40%) | 3 (Herbicidal ratio of 40% or more and less than 70%)
11 | CCN(CC)c1nnc2c(C(=O)Nc3nnnn3C)ccc(C(F)(F)F)n12 [2-089] | 5 (Herbicidal ratio of 90% or more (almost completely withered)) | 5 (Herbicidal ratio of 90% or more (almost completely withered)) | 5 (Herbicidal ratio of 90% or more (almost completely withered)) | – | – | – | – | – | – | 5 (Herbicidal ratio of 90% or more (almost completely withered)) | 4 (Herbicidal ratio of 70% or more and less than 90%) | 0 (Herbicidal ratio of 5% or less (almost no effect)) | 0 (Herbicidal ratio of 5% or less (almost no effect)) | 4 (Herbicidal ratio of 70% or more and less than 90%)
